Data from US20170042809A1, “STABLE LIPOSOMAL FORMULATIONS OF CARBONIC ANHYDRASE INHIBITORS FOR OCULAR DRUG DELIVERY” (Peregrine Ophthalmic PTE LTD., priority 2015, published 2017).
Counter-ions that a name gives are not always drawn.

Key:
[1] = Stability of LipoDH and dorzolamide HCl aqueous solution on storage at 5° C.; format: physicochemical
Protocol: The LipoDH formulation was described above in EXAMPLE 2. A dorzolamide HCl aqueous solution was prepared by dissolving 200 mg dorzolamide HCl in 20 mL of PBS. The dorzolamide content of both formulations was analyzed after storing them at 5° C. for 7 and 14 days. The temperature was monitored and recorded continuously to ensure stable temperature conditions.

[2] = In-vitro drug release by dialysis against PBS pH 7.4, HPLC; format: physicochemical; conditions: within 48 hours, dialysis (MWCO 8-10 kDal) against PBS pH 7.4
Protocol: Drug release studies were performed by dialysing a dorzolamide HCl solution and LipoDH prepared as described above in EXAMPLE 2 and EXAMPLE 3, respectively, against PBS at a pH of 7.4 and measuring the amount of dorzolamide released by HPLC.
Briefly, 1 mL of dorzolamide HCl solution and 1 ml LipoDH were each loaded into a dialysis tube (molecular weight cut-off of 8-10 kDal) before placing the tube into 40 mL of PBS in a 50 mL tube. The PBS in the tubes was sampled at 1, 4, 7, 24, 48, 72 and 96 hours at which time the dorzolamide concentration was measured by HPLC.
The cumulative drug release percentage vs release time for both dorzolamide HCl solution (unencapsulated) and LipoDH (encapsulated) was calculated and plotted. […] Without a doubt, encapsulation of dorzolamide in a liposome results in a formulation capable of sustained drug delivery.

CCN[C@H]1C[C@H](C)S(=O)(=O)c2sc(S(N)(=O)=O)cc21 [dorzolamide HCl]
degradation percentage ([1]; at 7 days, storage at 5° C.): 57.9%
degradation percentage, Start of Stability Test ([1]; start of stability test): 0.0%
drug content, Start of Stability Test ([1]; start of stability test): 9.5 mg/mL
degradation percentage, 7 Days Incubation ([1]; stored at 5° C. for 7 days): 57.9%
drug content, 7 Days Incubation ([1]; stored at 5° C. for 7 days): 4.0 mg/mL
degradation percentage, 14 Days Incubation ([1]; stored at 5° C. for 14 days): 58.9%
drug content, 14 Days Incubation ([1]; stored at 5° C. for 14 days): 3.9 mg/mL
cumulative drug release percentage [2]: 80%
